Source: the NIST ThermoML archive (doi:10.1016/j.jct.2016.10.009)

Test: xn = mol fraction of the nth substance listed
Details: Liquid, Vibrating tube method

CC(C)OC(C)C [diisopropyl ether] + CCC(C)O
mass density [kg/m3]
Details	x2 = 0	x2 = 0.2036	x2 = 0.3227	x2 = 0.4464	x2 = 0.4973	x2 = 0.6595	x2 = 0.8482
373.24 K, 20000 kPa	–	–	693	701.7	705.7	719.1	736.5
373.24 K, 25000 kPa	680.8	692.1	699.7	708.2	712	725.1	741.9
373.24 K, 30000 kPa	687.6	698.6	706	714.3	718	730.6	747.1
373.24 K, 35000 kPa	693.8	704.4	711.7	719.8	723.4	735.7	751.9
373.24 K, 40000 kPa	699.6	710	717.1	725	728.5	740.7	756.3
373.24 K, 45000 kPa	705	715.3	722.2	730	733.5	745.3	760.7
373.24 K, 50000 kPa	710.1	720.1	726.9	734.6	738	749.6	764.7
373.24 K, 55000 kPa	714.9	724.9	731.5	739	742.4	753.8	768.7
373.24 K, 60000 kPa	719.5	729.2	735.8	743.2	746.5	757.8	772.4
373.24 K, 65000 kPa	723.9	733.4	740	747.3	750.6	761.6	776
373.24 K, 70000 kPa	728.1	737.4	743.9	751.1	754.3	765.2	779.5
373.24 K, 80000 kPa	735.9	745.2	751.5	758.4	761.6	772.3	786.1
373.24 K, 90000 kPa	743.2	752.3	758.4	765.2	768.4	778.8	792.3
373.24 K, 100000 kPa	750	758.8	764.9	771.5	774.6	784.8	798.2
373.24 K, 110000 kPa	756.3	765.1	771	777.6	780.6	790.6	803.6
373.24 K, 120000 kPa	762.3	770.9	776.8	783.2	786.1	796	808.8
373.24 K, 130000 kPa	768	776.5	782.3	788.7	791.5	801.3	813.9
373.24 K, 140000 kPa	773.3	781.8	787.4	793.7	796.6	806.1	818.6
393.28 K, 1000 kPa	609.5	623.6	633.2	644	648.8	665	686.4
393.28 K, 5000 kPa	622.1	635	643.9	654	658.4	673.7	693.9
393.28 K, 10000 kPa	635	647	655.3	664.6	668.8	683.2	702.2
393.28 K, 15000 kPa	645.8	657.1	665	673.9	677.9	691.5	709.7
393.28 K, 20000 kPa	655.2	666	673.6	682	685.8	698.9	716.3
393.28 K, 25000 kPa	663.5	674	681.2	689.5	693.1	705.7	722.6
393.28 K, 30000 kPa	671.1	681.1	688.2	696.2	699.8	712	728.4
393.28 K, 35000 kPa	677.9	687.8	694.7	702.5	705.9	717.8	733.8
393.28 K, 40000 kPa	684.3	694	700.7	708.3	711.6	723.2	738.8
393.28 K, 45000 kPa	690.2	699.6	706.2	713.7	717	728.3	743.6
393.28 K, 50000 kPa	695.8	705.1	711.5	718.8	722	733.1	748.1
393.28 K, 55000 kPa	701.1	710.3	716.6	723.7	726.9	737.8	752.5
393.28 K, 60000 kPa	705.9	714.9	721.1	728.2	731.3	742.1	756.5
393.28 K, 65000 kPa	710.6	719.4	725.7	732.5	735.6	746.3	760.4
393.28 K, 70000 kPa	715.2	723.9	729.9	736.8	739.9	750.3	764.3
393.28 K, 80000 kPa	723.5	732	738	744.7	747.6	757.7	771.4
393.28 K, 90000 kPa	731.3	739.7	745.5	752	754.9	764.8	778.1
393.28 K, 100000 kPa	738.4	746.7	752.4	758.7	761.6	771.3	784.3
393.28 K, 110000 kPa	745.3	753.3	758.9	765.2	768	777.5	790.3
393.28 K, 120000 kPa	751.4	759.4	764.9	771.1	773.8	783.2	795.8
393.28 K, 130000 kPa	757.4	765.3	770.8	776.8	779.6	788.8	801.1
393.28 K, 140000 kPa	763.1	770.8	776.3	782.3	784.9	794.1	806.2
